For data set [1], the system named is CCRF-CEM. Put plainly: Cytotoxic activity was evaluated against CEM/O cells; No activity up to > 250 uM. In kind it is functional, cell-based, Homo sapiens.
Data set [2] concerns CCRF-CEM. Put plainly: Effective concentration of compound against HIV-2 infected CEM/O cells; No activity up to > 250 uM. In kind it is functional, cell-based, Homo sapiens.
For data set [3], the system named is CCRF-CEM. In words: Effective concentration of compound against HIV-1 infected CEM/O cells; No activity up to > 250 uM. Format: functional, cell-based, Homo sapiens.
For data set [4], the system named is CCRF-CEM. Put plainly: Effective concentration of compound against HIV-1 infected CEM/O cells. As to conditions: Homo sapiens; call rule not given here. Format: functional, cell-based.
For data set [5], the system named is CCRF-CEM. Put plainly: Cytotoxic activity was evaluated against CEM/O cells. In kind it is functional. The note with it: Homo sapiens.
Data set [6] is described as follows: Partition coefficient was measured in 1-octanol/phosphate buffer (pH 6.8). In kind it is physicochemical.
Data set [7] relates to CCRF-CEM. Put plainly: Effective concentration of compound against HIV-2 infected CEM/O cells. Format: functional, cell-based. The note with it: Homo sapiens.
The nature of data set [8]: Hydrolysis half-life (t1/2) in phosphate buffer at pH 7.3. In kind it is ADME.

pEC50: −log10 of the molar value.

What is called pEC50 is the negative decadic logarithm of the EC50, by convention in mol/L. The term CC50 denotes the concentration giving 50% cytotoxicity. Read a high CC50 as better tolerance by the cells. As a reminder, the logD is lipophilicity at a set pH, counting ionised and neutral species. What is called half-life is how long it takes for the measured level to halve. Low readings indicate rapid decline, high ones slow decline.

Consider `Cc1cccc(O)c1CO`, for which the EC50 entry in the data set with CCRF-CEM [1], with CCRF-CEM [2] and in the data set on CCRF-CEM [3] was “Not Active” each time.
Regarding `Cc1cccc2c1OP(=O)(OCC1CCC(n3cnc4c(N)ncnc43)O1)OC2` (stereo not drawn), the pEC50 in the data set on CCRF-CEM [4] is 7.52; in the data set on CCRF-CEM [7], 7.46. In the data set with CCRF-CEM [5], this compound showed a CC50 of 9540 nM. This compound gave a pH-dependent lipophilicity (logD) in data set [6] of 0.91. In data set [8], this compound had a half-life of 35.1 h.
For `COc1ccc(CO)c(O)c1`, the EC50 result with CCRF-CEM [1], in the data set with CCRF-CEM [2] and in the data set on CCRF-CEM [3] was “Not Active” in each case.
In the case of `COc1ccc2c(c1)COP(=O)(OCC1CCC(n3cnc4c(N)ncnc43)O1)O2` (stereo not drawn), the pEC50 in the data set on CCRF-CEM [4] was 7.19; in the data set with CCRF-CEM [7], 7.05. The compound further returned a half-maximal cytotoxic concentration (CC50) in the data set on CCRF-CEM [5] of 30400 nM. The compound further showed a logD in data set [6] of 0.61. In addition, the half-life in data set [8] is 14 h.
For the compound `OCc1ccccc1O` [SALICYL ALCOHOL], the EC50 result in the data set with CCRF-CEM [1], with CCRF-CEM [2] and with CCRF-CEM [3] was “Not Active” throughout.
As for `Nc1ncnc2c1ncn2C1CCC(COP2(=O)OCc3ccccc3O2)O1` (stereo not drawn), the negative logarithm of the EC50 (pEC50) with CCRF-CEM [4] is 6.92; in the data set with CCRF-CEM [7], 6.96. The compound further displayed a CC50 in the data set on CCRF-CEM [5] of 21900 nM. The compound also registered a logD in data set [6] of 0.54. Also, the half-life in data set [8] was 8.2 h.
With `Nc1ncnc2c1ncn2[C@H]1CC[C@@H](CO)O1`, the pEC50 in the data set on CCRF-CEM [4] was 5.44; with CCRF-CEM [7], 5.27. This compound gave a 50% cytotoxic concentration (CC50) in the data set with CCRF-CEM [5] of 200000 nM. This compound also yielded a logD in data set [6] of -0.28.

(Values after ChEMBL document CHEMBL1130460, “ADA-Bypass by lipophilic cycloSal-ddAMP pro-nucleotides A second example of the efficiency of the cycloSal-Concept” (Bioorg Med Chem Lett, 1997).)
